Assay results reported in PubChem BioAssay AID651630 (Sanford-Burnham Center for Chemical Genomics, 2012).
The source made the active and inactive calls.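 The calls were made as follows: active = lipid-stain IC50 at or below a set limit, with nuclear-stain toxicity IC50 at least five times higher; inactive = the rest.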

Columns and labels:
DAPI = experiment: TAG lipid buildup inhibition with viability readout – cell-based, panel, Nile Red and DAPI fluorescence, H9c2, dose response (AID 651630); settings: H9c2 cells, DAPI nuclear fluorescence (cytotoxicity counter-readout), oleic acid;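 also: cells exposed to compound overnight before fixation and staining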
TAG = experiment: as above; settings: H9c2 cells, Nile Red TAG fluorescence, oleic acid

| SMILES | IC50 cytotoxicity (DAPI nuclear signal decrease) (DAPI; mean of runs) | IC50 cytotoxicity (DAPI nuclear signal decrease) (DAPI; run 1) | IC50 cytotoxicity (DAPI nuclear signal decrease) (DAPI; run 2) | IC50 (TAG; mean of runs) | IC50 (TAG; run 1) | IC50 (TAG; run 2) |
| --- | --- | --- | --- | --- | --- | --- |
| COC(=O)c1ccc(/C=C/c2c(-c3ccsc3)oc3ccc(N4CCOCC4)cc23)cc1 | > 25 µM (inactive) | > 25 µM | > 25 µM | 16.9 µM (inactive) | 25 µM | 8.72 µM |
| CCOC(=O)N1CCN(C(=O)c2ccccc2N(Cc2ccccc2)S(=O)(=O)c2ccc(OC)cc2)CC1 | > 25 µM (inactive) | > 25 µM | > 25 µM | 19.9 µM (inactive) | 24.3 µM | 15.5 µM |
| C=CC[C@@H](CC(=O)N(CCO)Cc1ccccc1)C(=O)N[C@H](COC(=O)[C@@H](CC=C)CC(=O)OC(C)(C)C)C(C)(C)C |  | > 25 µM | > 25 µM | 3.39 µM | 4.3 µM | 2.48 µM |
| Nc1c(Cl)cc(-c2csc(N3CCCC3c3nc4cc(Cl)c(N5CCCCC5)cc4n3CCOCCO)n2)cc1Cl (stereo unspecified) | > 25 µM (inactive) | > 25 µM | > 25 µM | 11.4 µM | 11.6 µM | 11.1 µM |
| COc1ccc(-c2sc3ccc(N4CCOCC4)cc3c2C#CC(C)(C)O)cc1 | > 25 µM (inactive) | > 25 µM | > 25 µM | > 25 µM (inactive) | > 25 µM | > 25 µM |
| CCCCNC(=O)C(=O)Nc1ccc2c(c1)N(S(=O)(=O)c1cccs1)CCC2 | > 25 µM (inactive) | > 25 µM | > 25 µM |  | > 25 µM | 9.53 µM |
| COc1cc(C2C(C#N)=C(N)Oc3cc4c(cc32)OCO4)cc(OC)c1OC (stereo unspecified) | > 25 µM (inactive) | > 25 µM | > 25 µM |  | > 25 µM | 3.52 µM |
| CCOC(=O)[C@H]1[C@H]2COc3ccc(Br)cc3[C@@H]2N2C(=O)c3cc(Br)ccc3NC(=O)[C@@]12C | > 25 µM (inactive) | > 25 µM | > 25 µM | > 25 µM (inactive) | > 25 µM | > 25 µM |
| COc1cc(-c2noc(C)c2C#Cc2ccc(N)cc2)cc(OC)c1OC | > 25 µM (inactive) | > 25 µM | > 25 µM |  | > 25 µM | 8.23 µM |
| Cc1nn2c(NCc3ccccn3)c3c(nc2c1-c1ccccc1)CCC3 | > 25 µM (inactive) | > 25 µM | > 25 µM | > 25 µM (inactive) | > 25 µM | > 25 µM |
| CC(C)C[C@H]1C(=O)N2CCC[C@H]2[C@]2(O)O[C@](NC(=O)[C@@H]3C=C4c5cccc6[nH]c(Br)c(c56)CC4N(C)C3)(C(C)C)C(=O)N12 (stereo partly specified) | > 25 µM (inactive) | > 25 µM | > 25 µM | 6.72 µM | 6.96 µM | 6.47 µM |
| CC(=O)Nc1ccc(NC2=Nc3ccccc3N3C2=Nc2c(c(C)nn2-c2ccccc2)C3c2ccccc2)cc1 (stereo unspecified) | > 25 µM (inactive) | > 25 µM | > 25 µM | > 25 µM (inactive) | > 25 µM | > 25 µM |
| Nc1ncnc2c1ncn2C1C=C(CO)C(O)C1O (stereo unspecified) | > 25 µM (inactive) | > 25 µM | > 25 µM | 12.5 µM | 11.4 µM | 13.7 µM |
| COc1cc(Cn2c(-c3nonc3N)nc3ccccc32)ccc1C | > 25 µM (inactive) | > 25 µM | > 25 µM |  | 24.4 µM | > 25 µM |
| Cc1cc(C)c2nc(NC(=O)c3ccc([N+](=O)[O-])o3)sc2c1 | > 25 µM (inactive) | > 25 µM | > 25 µM | > 25 µM (inactive) | > 25 µM | > 25 µM |
| O=C(Nc1ccc(-c2csc(Nc3cccc(C(F)(F)F)c3)n2)cc1)c1ccccc1 | > 25 µM (inactive) | > 25 µM | > 25 µM |  | 22.3 µM | > 25 µM |
| CC(C)(C)OC(=O)N(CCc1ccccc1)Cc1ccc(OCc2cccc(NC(=O)/C=C/c3ccccc3)c2)cc1 | > 25 µM (inactive) | > 25 µM | > 25 µM | 7.63 µM | 7.99 µM | 7.28 µM |
| COc1ccc(-c2nn(-c3ccccc3)cc2/C=C/C(=O)OCC(=O)Nc2ccccc2C#N)cc1 | > 25 µM (inactive) | > 25 µM | > 25 µM |  | 16.5 µM | > 25 µM |
| CCN1CCN(Cc2ccc(NC(=O)c3cc(NC(=O)c4cncc(-c5cccs5)c4)cc(OC)c3)cc2C(F)(F)F)CC1 | > 25 µM (inactive) | > 25 µM | > 25 µM | 10.5 µM | 12.4 µM | 8.55 µM |
| CCCCOc1ccccc1NC(=O)Cn1c(-c2nonc2N)nc2ccccc21 | > 25 µM (inactive) | > 25 µM | > 25 µM | > 25 µM (inactive) | > 25 µM | > 25 µM |
| CC(=O)OCC(=O)[C@@]12OC3(CCCC3)O[C@@H]1C[C@H]1[C@@H]3CCC4=CC(=O)C=C[C@]4(C)[C@@]3(F)[C@@H](O)C[C@@]12C |  | > 25 µM | > 25 µM | 2.83 µM | 2.71 µM | 2.95 µM |
| O=C(Nc1ccccc1N1CCCCC1)c1ncoc1-c1ccc(F)cc1 | > 25 µM (inactive) | > 25 µM | > 25 µM | > 25 µM (inactive) | > 25 µM | > 25 µM |
| CC1(C)Cc2c(C#N)c(SCC(=O)c3ccccc3)nc(N3CCOCC3)c2CS1 | > 25 µM (inactive) | > 25 µM | > 25 µM | 19.3 µM (inactive) | 19.5 µM | 19.1 µM |
| CCN(CC)CCn1c(SCC(=O)Nc2cccc(OC)c2)nc2c(sc3ccccc32)c1=O | > 25 µM (inactive) | > 25 µM | > 25 µM | 13.7 µM | 16.7 µM | 10.6 µM |
